Test results from PubChem BioAssay (NCI).
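The compound was tested at five concentrations on cells cultured in 96-well plates, with a 48-hour exposure period. At the GI50, growth is halved. TGI marks complete inhibition of growth.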

Experiments:
Assay in all cases: DTP human tumour cell line panel, 48 h
CAKI-1 renal = system: CAKI-1 renal
SNB-19 CNS = system: SNB-19 CNS
OVCAR-4 ovarian = system: OVCAR-4 ovarian
NCI-H460 lung = system: NCI-H460 lung
CCRF-CEM leukemia = system: CCRF-CEM leukemia
T-47D breast = system: T-47D breast
DU-145 prostate = system: DU-145 prostate
TK-10 renal = system: TK-10 renal
NCI/ADR-RES ovarian = system: NCI/ADR-RES ovarian
SK-MEL-2 melanoma = system: SK-MEL-2 melanoma
HOP-62 NSCLC = system: HOP-62 NSCLC
K-562 leukemia = system: K-562 leukemia
KM12 colon = system: KM12 colon
SK-OV-3 ovarian = system: SK-OV-3 ovarian
SK-MEL-5 melanoma = system: SK-MEL-5 melanoma
IGROV1 ovarian = system: IGROV1 ovarian
RPMI-8226 leukemia = system: RPMI-8226 leukemia
SF-539 CNS = system: SF-539 CNS
HL-60(TB) leukemia = system: HL-60(TB) leukemia
SNB-75 CNS = system: SNB-75 CNS
A498 renal = system: A498 renal
HCT-15 colon = system: HCT-15 colon
SF-268 CNS = system: SF-268 CNS
HCT-116 colon = system: HCT-116 colon
786-0 renal = system: 786-0 renal
ACHN renal = system: ACHN renal
NCI-H522 lung = system: NCI-H522 lung
SN12C renal = system: SN12C renal
BT-549 breast = system: BT-549 breast
U251 CNS = system: U251 CNS
OVCAR-8 ovarian = system: OVCAR-8 ovarian
HCC-2998 colon = system: HCC-2998 colon
PC-3 prostate = system: PC-3 prostate
COLO 205 colon = system: COLO 205 colon
MOLT-4 leukemia = system: MOLT-4 leukemia
M14 melanoma = system: M14 melanoma
HT29 colon = system: HT29 colon
SF-295 CNS = system: SF-295 CNS
UACC-62 melanoma = system: UACC-62 melanoma
SR leukemia = system: SR leukemia
NCI-H23 lung = system: NCI-H23 lung
UO-31 renal = system: UO-31 renal
OVCAR-5 ovarian = system: OVCAR-5 ovarian
A549 NSCLC = system: A549 NSCLC
HOP-92 NSCLC = system: HOP-92 NSCLC
EKVX NSCLC = system: EKVX NSCLC
MALME-3M melanoma = system: MALME-3M melanoma
SK-MEL-28 melanoma = system: SK-MEL-28 melanoma
MDA-MB-435 = system: MDA-MB-435
RXF 393 renal = system: RXF 393 renal
UACC-257 melanoma = system: UACC-257 melanoma
SW-620 colon = system: SW-620 colon
MDA-MB-231 breast = system: MDA-MB-231 breast
LOX IMVI melanoma = system: LOX IMVI melanoma

SMILES: CCc1cc(OC(=O)N2CCC(N3CCCCC3)CC2)ccc1Nc1cc(-c2ccc(-n3cccn3)cc2)[nH]n1
- GI50 (CAKI-1 renal): 1.55 µM
- TGI (CAKI-1 renal): 3.45 µM
- GI50 (SNB-19 CNS): 1.95 µM
- TGI (SNB-19 CNS): 4.11 µM
- GI50 (OVCAR-4 ovarian): 2.22 µM
- TGI (OVCAR-4 ovarian): 5.34 µM
- GI50 (NCI-H460 lung): 1.58 µM
- TGI (NCI-H460 lung): 3.16 µM
- GI50 (CCRF-CEM leukemia): 2.95 µM
- TGI (CCRF-CEM leukemia): 21.6 µM
- GI50 (T-47D breast): 1.61 µM
- TGI (T-47D breast): 3.51 µM
- GI50 (DU-145 prostate): 1.91 µM
- TGI (DU-145 prostate): 4.17 µM
- GI50 (TK-10 renal): 1.41 µM
- TGI (TK-10 renal): 3.45 µM
- GI50 (NCI/ADR-RES ovarian): 2.94 µM
- TGI (NCI/ADR-RES ovarian): 9.89 µM
- GI50 (SK-MEL-2 melanoma): 1.83 µM
- TGI (SK-MEL-2 melanoma): 3.33 µM
- GI50 (HOP-62 NSCLC): 1.84 µM
- TGI (HOP-62 NSCLC): 3.7 µM
- GI50 (K-562 leukemia): 1.13 µM
- TGI (K-562 leukemia): 5.07 µM
- GI50 (KM12 colon): 2.11 µM
- TGI (KM12 colon): 4.29 µM
- GI50 (SK-OV-3 ovarian): 1.93 µM
- TGI (SK-OV-3 ovarian): 3.47 µM
- GI50 (SK-MEL-5 melanoma): 1.72 µM
- TGI (SK-MEL-5 melanoma): 3.12 µM
- GI50 (IGROV1 ovarian): 1.93 µM
- TGI (IGROV1 ovarian): 4.04 µM
- GI50 (RPMI-8226 leukemia): 2.03 µM
- TGI (RPMI-8226 leukemia): 5.62 µM
- GI50 (SF-539 CNS): 1.73 µM
- TGI (SF-539 CNS): 3.27 µM
- GI50 (HL-60(TB) leukemia): 1.71 µM
- TGI (HL-60(TB) leukemia): 4.52 µM
- GI50 (SNB-75 CNS): 1.66 µM
- TGI (SNB-75 CNS): 4.22 µM
- GI50 (A498 renal): 1.4 µM
- TGI (A498 renal): 2.81 µM
- GI50 (HCT-15 colon): 1.36 µM
- TGI (HCT-15 colon): 2.83 µM
- GI50 (SF-268 CNS): 1.82 µM
- TGI (SF-268 CNS): 3.73 µM
- GI50 (HCT-116 colon): 1.45 µM
- TGI (HCT-116 colon): 2.83 µM
- GI50 (786-0 renal): 1.55 µM
- TGI (786-0 renal): 2.98 µM
- GI50 (ACHN renal): 1.72 µM
- TGI (ACHN renal): 3.1 µM
- GI50 (NCI-H522 lung): 1.85 µM
- TGI (NCI-H522 lung): 3.51 µM
- GI50 (SN12C renal): 1.84 µM
- TGI (SN12C renal): 3.71 µM
- GI50 (BT-549 breast): 1.58 µM
- TGI (BT-549 breast): 2.95 µM
- GI50 (U251 CNS): 1.58 µM
- TGI (U251 CNS): 2.99 µM
- GI50 (OVCAR-8 ovarian): 1.8 µM
- TGI (OVCAR-8 ovarian): 3.83 µM
- GI50 (HCC-2998 colon): 1.75 µM
- TGI (HCC-2998 colon): 3.33 µM
- GI50 (PC-3 prostate): 1.73 µM
- TGI (PC-3 prostate): 3.65 µM
- GI50 (COLO 205 colon): 1.79 µM
- TGI (COLO 205 colon): 3.27 µM
- GI50 (MOLT-4 leukemia): 2.16 µM
- TGI (MOLT-4 leukemia): 11 µM
- GI50 (M14 melanoma): 1.83 µM
- TGI (M14 melanoma): 3.3 µM
- GI50 (HT29 colon): 1.27 µM
- TGI (HT29 colon): 2.74 µM
- GI50 (SF-295 CNS): 1.66 µM
- TGI (SF-295 CNS): 3.2 µM
- GI50 (UACC-62 melanoma): 1.92 µM
- TGI (UACC-62 melanoma): 3.96 µM
- GI50 (SR leukemia): 1.49 µM
- TGI (SR leukemia): 4.6 µM
- GI50 (NCI-H23 lung): 1.82 µM
- TGI (NCI-H23 lung): 3.9 µM
- GI50 (UO-31 renal): 1.56 µM
- TGI (UO-31 renal): 3.6 µM
- GI50 (OVCAR-5 ovarian): 1.83 µM
- TGI (OVCAR-5 ovarian): 4.02 µM
- GI50 (A549 NSCLC): 1.21 µM
- TGI (A549 NSCLC): 2.66 µM
- GI50 (HOP-92 NSCLC): 1.45 µM
- TGI (HOP-92 NSCLC): 3.23 µM
- GI50 (EKVX NSCLC): 2.16 µM
- TGI (EKVX NSCLC): 5.86 µM
- GI50 (MALME-3M melanoma): 1.67 µM
- TGI (MALME-3M melanoma): 3.21 µM
- GI50 (SK-MEL-28 melanoma): 1.73 µM
- TGI (SK-MEL-28 melanoma): 3.27 µM
- GI50 (MDA-MB-435): 1.77 µM
- TGI (MDA-MB-435): 3.34 µM
- GI50 (RXF 393 renal): 1.45 µM
- TGI (RXF 393 renal): 2.89 µM
- GI50 (UACC-257 melanoma): 1.82 µM
- TGI (UACC-257 melanoma): 3.44 µM
- GI50 (SW-620 colon): 1.86 µM
- TGI (SW-620 colon): 3.51 µM
- GI50 (MDA-MB-231 breast): 1.9 µM
- TGI (MDA-MB-231 breast): 3.57 µM
- GI50 (LOX IMVI melanoma): 1.66 µM
- TGI (LOX IMVI melanoma): 3.17 µM
